Test results: the NIST ThermoML archive (doi:10.1021/je900596d)

Conditions: Liquid; for mass density: Vibrating tube method; for vapor or sublimation pressure: Closed cell (Static) method

FC(F)=C(F)C(F)(F)F [hexafluoropropene]
Conditions | mass density [kg/m3]
263.49 K, 9976.6 kPa | 1506.02
283.17 K, 467.7 kPa | 1382.09
283.17 K, 472.9 kPa | 1382.09
283.17 K, 473.5 kPa | 1382.21
283.17 K, 478.6 kPa | 1382.26
283.17 K, 483 kPa | 1382.29
283.17 K, 491.9 kPa | 1382.32
283.17 K, 493.1 kPa | 1382.39
283.17 K, 504.9 kPa | 1382.43
283.17 K, 526.8 kPa | 1382.57
283.17 K, 533.6 kPa | 1382.61
283.17 K, 540.4 kPa | 1382.7
283.17 K, 548.7 kPa | 1382.78
283.17 K, 574 kPa | 1382.98
283.17 K, 583 kPa | 1382.99
283.17 K, 602 kPa | 1383.21
283.17 K, 637 kPa | 1383.38
283.17 K, 662.9 kPa | 1383.6
283.17 K, 691.4 kPa | 1383.74
283.17 K, 716 kPa | 1383.92
283.17 K, 731.4 kPa | 1384.12
283.17 K, 751.9 kPa | 1384.27
283.17 K, 766.8 kPa | 1384.29
283.17 K, 790.1 kPa | 1384.57
283.17 K, 833.3 kPa | 1384.9
283.17 K, 856.3 kPa | 1384.98
283.17 K, 882.3 kPa | 1385.18
283.17 K, 902.7 kPa | 1385.3
283.17 K, 924.8 kPa | 1385.58
283.17 K, 945.6 kPa | 1385.66
283.17 K, 965.5 kPa | 1385.81
283.17 K, 988.4 kPa | 1386.02
283.17 K, 1017 kPa | 1386.11
283.17 K, 1047.4 kPa | 1386.36
283.17 K, 1072.3 kPa | 1386.5
283.17 K, 1098.6 kPa | 1386.88
283.17 K, 1125.8 kPa | 1386.96
283.17 K, 1165.1 kPa | 1387.2
283.17 K, 1199.3 kPa | 1387.58
283.17 K, 1251 kPa | 1387.98
283.17 K, 1286 kPa | 1388.12
283.17 K, 1320.8 kPa | 1388.36
283.17 K, 1354.8 kPa | 1388.62
283.17 K, 1394.7 kPa | 1388.89
283.17 K, 1427.8 kPa | 1389.18
283.17 K, 1463.5 kPa | 1389.43
283.17 K, 1507.4 kPa | 1389.74
283.17 K, 1549.2 kPa | 1389.92
283.17 K, 1591 kPa | 1390.31
283.17 K, 1634.6 kPa | 1390.61
283.17 K, 1720.9 kPa | 1391.22
283.17 K, 1765.5 kPa | 1391.52
283.17 K, 1806 kPa | 1391.83
283.17 K, 1849 kPa | 1391.99
283.17 K, 1895 kPa | 1392.44
283.17 K, 1935.4 kPa | 1392.64
283.17 K, 1975.7 kPa | 1392.98
283.17 K, 2022.9 kPa | 1393.24
283.17 K, 2076.3 kPa | 1393.62
283.17 K, 2128.3 kPa | 1394
283.17 K, 2174.7 kPa | 1394.46
283.17 K, 2219 kPa | 1394.73
283.17 K, 2306.2 kPa | 1395.23
283.17 K, 2350.5 kPa | 1395.59
283.17 K, 2406.1 kPa | 1396.02
283.17 K, 2455.4 kPa | 1396.26
283.17 K, 2506.6 kPa | 1396.64
283.17 K, 2551.5 kPa | 1396.81
283.17 K, 2593.9 kPa | 1397.25
283.17 K, 2644 kPa | 1397.48
283.17 K, 2684 kPa | 1397.73
283.17 K, 2734.9 kPa | 1398.07
283.17 K, 2785.7 kPa | 1398.39
283.17 K, 2848.1 kPa | 1398.74
283.17 K, 2900.4 kPa | 1399.13
283.17 K, 2951 kPa | 1399.5
283.17 K, 3020.7 kPa | 1400.01
283.17 K, 3136.8 kPa | 1400.76
283.17 K, 3180.2 kPa | 1400.96
283.17 K, 3236.8 kPa | 1401.44
283.17 K, 3291.9 kPa | 1401.74
283.17 K, 3350 kPa | 1402.05
283.17 K, 3394.2 kPa | 1402.39
283.17 K, 3434.9 kPa | 1402.61
283.17 K, 3476.3 kPa | 1403.01
283.17 K, 3535.7 kPa | 1403.26
283.17 K, 3591.4 kPa | 1403.66
283.17 K, 3653.3 kPa | 1403.98
283.17 K, 3709.6 kPa | 1404.3
283.17 K, 3821.9 kPa | 1405.06
283.17 K, 3864.3 kPa | 1405.48
283.17 K, 3907.8 kPa | 1405.66
283.17 K, 3949 kPa | 1405.94
283.17 K, 4020.4 kPa | 1406.43
283.17 K, 4078.5 kPa | 1406.71
283.17 K, 4127.6 kPa | 1407.05
283.17 K, 4182.4 kPa | 1407.4
283.17 K, 4239.6 kPa | 1407.72
283.17 K, 4293.4 kPa | 1408.17
283.17 K, 4409.9 kPa | 1408.82
283.17 K, 4465.6 kPa | 1409.18
283.17 K, 4516.2 kPa | 1409.47
283.17 K, 4620.4 kPa | 1410.09
283.17 K, 4676.1 kPa | 1410.42
283.17 K, 4728.4 kPa | 1410.73
283.17 K, 4783.7 kPa | 1411.1
283.17 K, 4835.3 kPa | 1411.33
283.17 K, 4889.5 kPa | 1411.65
283.17 K, 4943.6 kPa | 1412.08
283.17 K, 4996 kPa | 1412.33
283.17 K, 5057.6 kPa | 1412.68
283.17 K, 5126.3 kPa | 1413.1
283.17 K, 5167.5 kPa | 1413.34
283.17 K, 5237.5 kPa | 1413.76
283.17 K, 5303.9 kPa | 1414.14
283.17 K, 5372.7 kPa | 1414.61
283.17 K, 5504.1 kPa | 1415.44
283.17 K, 5572.6 kPa | 1415.73
283.17 K, 5644.7 kPa | 1416.12
283.17 K, 5720.2 kPa | 1416.66
283.17 K, 5786.5 kPa | 1416.98
283.17 K, 5855.5 kPa | 1417.42
283.17 K, 5920.9 kPa | 1417.74
283.17 K, 5997.2 kPa | 1418.2
283.17 K, 6065.1 kPa | 1418.58
283.17 K, 6130.5 kPa | 1419
283.17 K, 6196 kPa | 1419.33
283.17 K, 6260.9 kPa | 1419.73
283.17 K, 6326.3 kPa | 1420.11
283.17 K, 6398.7 kPa | 1420.44

Conditions | vapor or sublimation pressure [kPa]
268.24 K | 272
273.24 K | 326.8
278.21 K | 389
278.22 K | 388.6
